Measurements from patent US12103939B2, “Solid pharmaceutical gold-based composition” (KING FAHD UNIVERSITY OF PETROLEUM AND MINERALS, priority 2019, dated 2024).
Several values for one entry are separate records, joined by “and”; a condition that tells them apart may be missing. Identical values can stand only once.

Experiments:
[1] = system: thioredoxin reductase (TrxR); test: Thioredoxin reductase activity in lysates of treated PC3 cells; details: PC3, C6 at IC25, IC50, IC75, 12 h
Protocol: All experimental conditions were tested in triplicate and experiments were done three times to calculate means and SD.
Thioredoxin reductase (TrxR) (EC 1.8.1.9) was assayed using the Thioredoxin Reductase Assay Kit (Sigma-Aldrich). […] Enzyme activity was determined reading absorbance at 412 nm using a spectrophotometer (Biomate 3 Thermo Spectronic). The enzymatic activity was normalized to the protein concentration, determined using the Bio-Rad protein assay (Protein Assay Dye Reagent Concentrate, Bio-Rad Laboratories), and expressed as percentage of control (no C6).

[2] = system: PC3 cells; test: Reactive oxygen species production (H2DCFDA); type: cell-based, human; details: PC3, C6 at IC50 and IC75, 24 h
Protocol: The production of reactive oxygen species (ROS) was evaluated using 2′,7′-dichlorodihydrofluorescein diacetate (H2DCFDA) (H2-DCF, DCF) (Invitrogen). Cells were pretreated with the antioxidant N-acetyl-L-cysteine (NAC; 5 mM) (Sigma) for 30 min before C6 was added. After 24 h of C6 treatment, cells were harvested and viable cells were counted by trypan blue dye exclusion. Then cells were washed, stained with 1 μM H2DCFDA for 30 min at 37° C., and finally ROS production was analyzed by flow cytometry.

[3] = system: PC3 cells; test: Cell cycle distribution (PI staining); type: cell-based, human; details: vs untreated cells
Protocol: To assay the distribution of cells in the various phases of the cell cycle, PC3 cells were treated with C6 for 48 h, then harvested, fixed in cold 70% ethanol for 15 min and stained with PI solution (50 μg/mL PI, 0.1% NP-40, 100 μg/mL PureLink RNase A, 0.1% sodium citrate). After 1 h, cells were analyzed by flow cytometry. The distribution of cells in different cell cycle phases was quantified using ModFit LT 4.0 software.

[4] = system: caspase 3,7; test: Caspase 3,7 activation (FLICA, flow cytometry); type: cell-based, human; details: PC3, 24 h
Protocol: For apoptosis assays, PC3 cells were treated with C6 for 24 h and then apoptosis was assayed by staining for 15 min with FITC Annexin V reagent (BD Pharmingen) and propidium iodide (PI). Apoptotic cells were detected by flow cytometry (BD FACSCanto II flow cytometer) and analyzed using BD FACSDiva v8.0.1 software (BD Biosciences). Caspase 3,7 activation was evaluated using fluorochrome-labeled inhibitors of caspases (FLICA) of the CaspaTag Caspase 3,7 In Situ Assay Kit, Fluorescein (Millipore) and evaluated by flow cytometry; data were expressed as mean fluorescence intensity.

[5] = system: normal human adipose-derived stromal cells (ADSCs); test: Growth inhibition in adipose-derived stromal cells (MTT, 72 h); type: cell-based; details: MTT after 72 h
Protocol: Human adipose-derived stromal cells (ADSCs) were from Lonza (Verviers, Belgium). ADSCs were maintained in MSGM bullet kit (Lonza) and experiments were performed in DMEM (Cambrex Bio Science, Milan, Italy) supplemented with 10% FBS. To evaluate effects of C6, ADSCs were seeded in 96-well flat-bottomed microplates (5.0×10^3 cells in 100 μL per well) and incubated for 24 h (to allow cell adhesion) before drug testing. The medium was removed and replaced with fresh medium containing C6 at increasing concentrations (from 0.1 to 1 μM). Cells were incubated at 37° ° C. for 72 h. Each treatment was performed in triplicate. Cell growth was measured using the MTT assay.

[6] = system: PC3 prostate cancer cell line; test: Cytotoxicity assay (MTT, 72 h); type: cell-based, human
Protocol: (§1) R-ME-180 and A2780cis cells were maintained in 1 μM cisplatin. Adipose-derived stromal cells were maintained in MSCGM BulletKit medium (Lonza). All cell lines were cultured at 37° C. in a 5% CO2, fully humidified atmosphere
(§2) Cell lines were seeded in 96-well flat-bottomed microplates in 100 μL culture medium at the following densities: DU145, PC3 and MCF-7 cells (2.5×10^3 cells/well); A2780, A2780cis, ME-180, R-ME-180 and A549 cells (4.0×10^3 cells/well); and MG-63 cells (2.0×10^3 cells/well). Cells were allowed to adhere for 24 h. Then the medium was replaced with fresh medium alone or with one of the gold(III) complexes at increasing concentrations from 0 to 100 μM. The reference drugs cisplatin (0-100 μM) and doxorubicin (0-1 μM) were included as positive controls for growth inhibition. After 72 h, cell viability was assayed using the MTT assay.
(§3) See Chou T. C.; Talalay P. Quantitative analysis of dose-effect relationships: the combined effects of multiple drugs or enzyme inhibitors. […] 22, 27-55, incorporated herein by reference in its entirety. IC50 values were reported as mean (SD). For drug-resistance cell lines, fold resistance (FR) was calculated as the ratio of the IC50 of the resistant cell line to the IC50 of the parental cell line.

[7] = system: cisplatin-resistant R-ME-180 clone; test: Cytotoxicity assay (MTT, 72 h); type: cell-based, human
Protocol: as §1, §2, §3

[8] = system: DU145 prostate cancer cell line; test: Cytotoxicity assay (MTT, 72 h); type: cell-based, human; details: DU145, MTT after 72 h, mean (SD); read-out: Half-maximal inhibitory concentration (IC50)
Protocol: as §1, §2, §3

[9] = system: A549 lung cancer cell line; test: Cytotoxicity assay (MTT, 72 h); type: cell-based, human; details: A549, MTT after 72 h, mean (SD); read-out: Half-maximal inhibitory concentration (IC50)
Protocol: as §1, §2, §3

[10] = system: MCF-7 breast cancer cell line; test: Cytotoxicity assay (MTT, 72 h); type: cell-based, human; details: MCF-7, MTT after 72 h, mean (SD); read-out: Half-maximal inhibitory concentration (IC50)
Protocol: as §1, §2, §3

[11] = system: MG-63 osteosarcoma cell line; test: Cytotoxicity assay (MTT, 72 h); type: cell-based, human; details: MG63, MTT after 72 h, mean (SD); read-out: Half-maximal inhibitory concentration (IC50)
Protocol: as §1, §2, §3

[12] = system: cisplatin- and doxorubicin-resistant A2780cis clone; test: Cytotoxicity assay (MTT, 72 h); type: cell-based, human
Protocol: as §1, §2, §3

[13] = system: PC3 cells; test: Double-stranded DNA breaks (histone H2A.X phosphorylation); type: cell-based, human; details: PC3, 24 h
Protocol: The presence of double-stranded DNA breaks was assessed 24 h after treatment with C6 by fixing and permeabilizing cells with Fix & Perm medium A and B (Invitrogen) and staining with FITC anti-H2A.X Phospho (Ser139) Antibody (BioLegend, San Diego, USA). Stained cells were evaluated by flow cytometry.

C[N+](C)=C1[S][Au-]2([S]1)[n+]1ccc[n+]3c1-c1[n+]2ccc[n+]1[Au-]31[S]C(=[N+](C)C)[S]1.[Cl-].[Cl-].[Cl-].[Cl-] [C6, [Au2(BPM)(DMDTC)2]Cl4] was tested, and the TrxR enzymatic activity [1] was “dose-dependent decrease of its enzymatic activity”, the ROS production [2] was “induced ROS production in a dose-dependent manner” and the “distribution of cells in the cell cycle” value [3] was “increasing the percentage of cells in S phase and decreasing that in G1”. The “caspase 3,7 activation (FLICA)” value [4] was “activated caspase 3,7”, the IC50 [5] was 1400 nM and the IC25 ([6]; PC3) was 0.31 µM. The IC75 ([6]; PC3) was 1.85 µM, the IC50 ([6]; PC3, MTT after 72 h, mean (SD), read-out: Half-maximal inhibitory concentration (IC50)) was 600 nM and 620 nM and the “FR (R-ME-180/ME-180), fold resistance” value ([7]; IC50 R-ME-180 / IC50 ME-180) was 0.9. It also gave an IC50 ([7]; R-ME-180, MTT after 72 h, mean (SD)) of 4.9 µM, an IC50 [8] of 700 nM and an IC50 [9] of 800 nM. The IC50 [10] was 500 nM, the IC50 [11] was 800 nM and the IC50 ([12]; A2780cis, MTT after 72 h, mean (SD)) was 300 nM. The “FR (A2780cis/A2780), fold resistance” value ([12]; IC50 A2780cis / IC50 A2780) was 1.2 and the “double-stranded DNA breaks (phosphorylation of histone H2A.X)” value [13] was “increase in phosphorylation of histone H2A.X”.
